From US6486128B1, “Method of using emamectin to treat fish parasites” (Schering-Plough Veterinary Corporation, priority 1999, dated 2002)
“And” between values parts separate entries of the source, which are not always exact repeats. Equal values may be shown once.

What was measured:
[1] = Daily observation of fish for behavior, adverse drug reactions and mortalities (three studies); format: in vivo, Atlantic salmon, Salmo salar L.; conditions: any of the doses tested (25, 50, 100 μg kg^−1 per day, 7 days in feed)
Experimental: (§1) Fish were held in replicate groups in plastic fiber tanks, each with a volume of 0.54 m^3. Each tank was supplied with natural sea water at ambient temperature (7-14° C.) and salinity (30-35 ppt), at flow rates of approximately 18 l. min^−1. The tanks were fitted with mesh screens over the water outlet to retain uneaten fish pellets. Fish were observed daily for behavior and adverse drug reactions. Fish mortalities and the occurrence of gross sea lice damage were also recorded.

[2] = test system: sea lice, Lepeophtheirus salmonis; assay: Dose titration study: efficacy of emamectin benzoate in feed against induced sea lice infestations on Atlantic salmon; format: in vivo; conditions: for Percentage fish mortality: mortality attributed to sea lice damage, includes culled fish
Experimental: (§2) Three studies were carried out at the Institute of Aquaculture Marine Environmental Research Laboratory in Machrihanish, Scotland. Atlantic salmon, Salmo salar L., post-smolts were obtained from a disease free stock and acclimatised at the test facility.
as §1
(§3) Sea lice were collected during harvesting on commercial salmon farms on the west coast of Scotland. Egg strings collected from gravid female lice were incubated in sea water at ambient temperature and within a salinity range of 32-35 ppt. Once the hatched larvae reached the copepodite stage, 38-170 copepodites per fish were introduced into each of four replicate tanks of fish and the water supply to each tank was turned off for approximately three hours to allow attachment of copepodites to the fish. This was repeated 4-5 times at intervals of 3-5 days until chalimus stages I, II, III and IV were present. Chalimus numbers were evaluated at day −1 or day −2 pre-treatment, on sub-samples of fish (N=6-9 fish per tank). At this point, fish were infested with pre-adult and adult lice, by adding 5-10 lice per fish to each tank. Water supplies to each tank were turned off for around one hour until all the lice had attached to the fish. Pre-treatment lice numbers were based on a sub-sample of the total population and presented as the mean number of chalimus per fish. Fish were then randomly re-distributed from the four original tanks to each control or treatment tank, as described in the experimental design for each study, and no further infestations were carried out during or after treatment.
(§4) The basal ration was Fulmar™ (BOCM Pauls Ltd.) 3.5 or 5 mm salmon feed pellets. Emamectin benzoate was dissolved in propylene glycol and mixed with fish oil prior to top coating the feed pellets. Control feeds were prepared in the same way with propylene glycol and fish oil. Treatment was administered at nominal dose rates of 0, 25, 50 and 100 μg kg^−1 fish biomass per day, at a feed rate of 0.5% biomass, for a period of seven consecutive days (days 0-6). Actual daily feed consumption was measured in each tank by collecting the uneaten feed pellets approximately thirty minutes after administration and subtracting the number of pellets from the daily ration fed. The mean dose consumed was calculated for each group as follows: [formula] Mean feed consumption (%)×nominal dose rate (μg·kg^−1)=Mean dose consumed (μg·kg^−1)
(§5) Evaluation of sea lice numbers was carried out at 7, 14 and 21 days from the start of treatment. Fish were anaesthetised in 40 mg·l^−1 ethyl-P-aminobenzoate (benzocaine) and each fish examined under a low power microscope. Lice were identified as chalimus I-IV, pre-adult I or II and adult stages. Pre-adults and adult lice were additionally identified as males or females. The numbers of each developmental stage were recorded. Any lice which detached in the anaesthetic solution were included in the counts and reattached to the fish after transferring them to fresh seawater. The fish were returned to the holding tanks after sampling and the same fish were evaluated at days 7, 14 and 21.
The water temperature was 7-10° C. and salinity was 33-34 ppt. Pre-treatment, mean fish weights were 192 g (±30 g S.D). Emamectin benzoate was administered at nominal daily dose rates of 0, 25, 50 and 100 μg kg^−1 fish biomass. There were two replicate tanks per treatment with a sample size of 19 or 20 fish per tank. […]

[3] = test system: sea lice, Lepeophtheirus salmonis; assay: Dose confirmation study II: efficacy of emamectin benzoate in feed against induced sea lice infestations on Atlantic salmon; format: in vivo
Experimental: as §2, §1, §3, §4, §5
The water temperature was 9-12° C. and salinity was 30-34 ppt. Pre-treatment, mean fish weights were 418.2 g (±49 g S.D). Emamectin benzoate was administered at se rates of 0 and 50 μg kg^−1 biomass. There were three replicate tanks per treatment with a sample size of 15-16 fish per tank. […]

[4] = nominal dose 25 μg·kg^−1/day (consumed 21.5) in feed Day 0-6, Day 7
[5] = nominal dose 25 μg·kg^−1/day (consumed 21.5) in feed Day 0-6, day 21
[6] = nominal dose 25 μg·kg^−1/day in feed Day 0-6, Day 14
[7] = nominal dose 25 μg·kg^−1/day in feed Day 0-6, Day 21
[8] = nominal dose 50 μg·kg^−1/day (consumed 45.0) in feed Day 0-6, Day 7
[9] = nominal dose 50 μg·kg^−1/day (consumed 45.0) in feed Day 0-6, day 21
[10] = nominal dose 50 μg·kg^−1/day in feed Day 0-6, Day 14
[11] = nominal dose 50 μg·kg^−1/day in feed Day 0-6, Day 21
[12] = nominal dose 100 μg·kg^−1/day (consumed 91.0) in feed Day 0-6, Day 7
[13] = nominal dose 100 μg·kg^−1/day (consumed 91.0) in feed Day 0-6, day 21
[14] = nominal dose 100 μg·kg^−1/day in feed Day 0-6, Day 14
[15] = nominal dose 100 μg·kg^−1/day in feed Day 0-6, Day 21
[16] = nominal dose 50 μg·kg^−1/day (consumed 45.7) in feed Day 0-6, Day 7

With emamectin benzoate the “adverse effects or fish mortality attributed to treatment” value [1] was “No adverse effects or fish mortality”, the “reduction of total numbers of lice per fish compared to the control groups” value ([2]; all treatment groups (25, 50, 100 μg kg^−1), day 7) was 35.4-37.5% and the “% Reduction relative to controls (Total lice)” value [2, 4] was 36.2%. For the same substance, the “Mean Total lice (± S.D)” value [2, 4] was 32.6 ± 10.7, the “Mean chalimus (± S.D)” value [2, 4] was 20.9 ± 8.6 and the “Mean motiles (± S.D)” value [2, 4] was 11.7 ± 6.0. For the same substance, the “% Reduction relative to controls (Total lice)” value ([2]; nominal dose 25 μg·kg^−1/day (consumed 21.5) in feed Day 0-6, Day 21) was 89.8%, the “Percentage of fish with no lice present (chalimus or motiles)” value (“Percentage of fish with no lice present” below) [2, 5] was 13.8% and the “Percentage of fish with no motile lice present” value [2, 5] was 55.0%. For the same substance, the “% Reduction relative to controls (Total lice)” value [2, 6] was 70.8%, the “Mean Total lice (± S.D)” value [2, 6] was 13.1 ± 6.9 and the “Mean chalimus (± S.D)” value [2, 6] was 9.7 ± 3.9. The “Mean motiles (± S.D)” value [2, 6] was 3.4 ± 6.4, the “Mean Total lice (± S.D)” value [2, 7] was 3.5 ± 2.7 and the “Mean chalimus (± S.D)” value [2, 7] was 2.4 ± 1.9. For the same substance, the “Mean motiles (± S.D)” value [2, 7] was 1.1 ± 2.2, the Percentage fish mortality ([2]; nominal dose 25 μg·kg^−1/day) was 0% and the “% Reduction relative to controls (Total lice)” value [2, 8] was 37.5%. For the same substance, the “Mean Total lice (± S.D)” value [2, 8] was 31.9 ± 11.4, the “Mean chalimus (± S.D)” value [2, 8] was 24.8 ± 10.3 and the “Mean motiles (± S.D)” value [2, 8] was 7.1 ± 4.1. For the same substance, the “% Reduction relative to controls (Total lice)” value ([2]; nominal dose 50 μg·kg^−1/day (consumed 45.0) in feed Day 0-6, Day 21) was 95.2%, the “Percentage of fish with no lice present” value [2, 9] was 22.5% and the “Percentage of fish with no motile lice present” value [2, 9] was 87.5%. For the same substance, the “% Reduction relative to controls (Total lice)” value [2, 10] was 70.3%, the “Mean Total lice (± S.D)” value [2, 10] was 13.4 ± 5.9 and the “Mean chalimus (± S.D)” value [2, 10] was 12.4 ± 3.5. The “Mean motiles (± S.D)” value [2, 10] was 1.0 ± 1.2, the “Mean Total lice (± S.D)” value [2, 11] was 1.7 and 1.7 ± 1.3 and the “Mean chalimus (± S.D)” value [2, 11] was 1.6 ± 1.5. The “Mean motiles (± S.D)” value [2, 11] was 0.1 ± 0.3, the Percentage fish mortality ([2]; nominal dose 50 μg·kg^−1/day) was 0% and the “% Reduction relative to controls (Total lice)” value [2, 12] was 35.4%. The “Mean Total lice (± S.D)” value [2, 12] was 33.0 ± 10.7, the “Mean chalimus (± S.D)” value [2, 12] was 29.0 ± 9.8 and the “Mean motiles (± S.D)” value [2, 12] was 4.0 ± 3.6. For the same substance, the “% Reduction relative to controls (Total lice)” value ([2]; nominal dose 100 μg·kg^−1/day (consumed 91.0) in feed Day 0-6, Day 21) was 95.8%, the “Percentage of fish with no lice present” value [2, 13] was 28.2% and the “Percentage of fish with no motile lice present” value [2, 13] was 87.0%. For the same substance, the “% Reduction relative to controls (Total lice)” value [2, 14] was 66.4%, the “Mean Total lice (± S.D)” value [2, 14] was 15.1 ± 5.8 and the “Mean chalimus (± S.D)” value [2, 14] was 14.1 ± 5.5. For the same substance, the “Mean motiles (± S.D)” value [2, 14] was 1.0 ± 3.2, the “Mean Total lice (± S.D)” value [2, 15] was 1.5 ± 1.6 and the “Mean chalimus (± S.D)” value [2, 15] was 1.2 ± 1.2. The “Mean motiles (± S.D)” value [2, 15] was 0.3 ± 1.0, the Percentage fish mortality ([2]; nominal dose 100 μg·kg^−1/day) was 2.5% and the “mean numbers of motile lice in the treated groups” value ([2]; treated groups (25, 50, 100 μg kg^−1), day 21) was 0.1-1.1 per fish. The “cranial lesions resulting from sea lice activity” value ([3]; 50 μg kg^−1 groups, by day 21 (21% of control fish had lesions)) was “No cranial lesions”, the “% Reduction relative to controls (Total lice)” value [3, 16] was 46% and 45.9% and the “Mean Total lice (± S.D)” value [3, 16] was 40.5 ± 12.2.
